Data taken from patent EP0562480B1, “1-phenyl-5-substituted-1H-1, 2,4-triazole-3-carboxamide derivates, process for preparation of the same, and fungicidal composition comprising the same” (KUREHA CHEMICAL INDUSTRY CO., LTD., priority 1992, dated 1993).

System: Botrytis cinerea
Experiment: Test for controlling effect against cucumber gray mold
Type: in vivo, Botrytis cinerea on cucumber
Conditions: 500 ppm wettable powder spray, 5 ml per pot; cucumber first leaf stage; lesion areas three days after inoculation

Row | SMILES | Inhibition rate (%) at concentration of 500 ppm Cucumber gray mold [%]
1 | CCCCOC(c1cccc(-n2nc(C(N)=O)nc2C2CCCCC2)c1)C(C)C (centres unmarked) [Compound 5, 1-[3-[(1-butoxy-2-methyl)propyl]phenyl]-5-cyclohexyl-1H-1,2,4-triazole-3-carboxamide] | 82
2 | CCCCOC(c1cccc(-n2nc(C(N)=O)nc2Cc2ccccc2)c1)C(C)C (centres unmarked) [Compound 6, 1-[3-[(1-butoxy-2-methyl)propyl]phenyl]-5-(phenylmethyl)-1H-1,2,4-triazole-3-carboxamide] | 80
